Data published in US20170305861A1, “HETEROARYL COMPOUNDS COMPRISING NITROGEN AND USE THEREOF” (ImmunoMet Therapeutics, Inc, priority 2016, published 2017).
Like-named read-outs stand apart in the source and are kept apart here.

Columns and labels:
[1] = test system: A549 cell lines (lung cancer cell lines); experiment: Oxygen Consumption Rate (OCR) of cells, corrected for cell viability (Cyquant); format: cell-based; conditions: Homo sapiens, read-out: OCR IC50
Experimental: The compounds synthesized by the methods disclosed in the Examples of the present invention have been measured on oxygen consumption rate and extracellular oxidation by the methods disclosed in the Test Examples below.
3×10^3 cells from A549 cell lines (purchased from ATCC-American Type Culture Collection), which are lung cancer cell lines, were placed on XF96 cell culture plates using RPMI1640 medium, and cultured at 37° C. in a 5% CO2 condition for 16 hours or more for attachment.
After 16 hours, the cells were treated with the drug at six different concentrations between 0 μM and 20 μM. After 24 hours, the existing medium was removed, and XF assay medium (15 mM D-Glucose, 15 mM sodium pyruvate, 4 mM L-Glutamine, pH 7.4) was added. The cells were retreated with the drug, and additionally cultured in Prep station at 37° C. in a non-CO2 condition for 1 hour. During the one-hour culture in the Prep station, a sensor cartridge was placed and calibrated for 20 minutes, and a plate with cells was placed to analyze the OCR. After the analysis was completed, XF96 plate was measured for cell viability using Cyquant assay, which measures the amount of intracellular DNA, in the following method. XF assay medium and the drug were removed, and the cells were placed in a cryogenic refrigerator (−80° C.) for at least 4 hours to be frozen. After the plate was made to be at room temperature, a solution where a lysis buffer and fluorescent GR dye were mixed was placed by 200 μL per well. After 20-minute reaction at room temperature, […] was measured between […] to calculate cell viability. A measured value of a well untreated with the drug was converted to 100% by reflecting cell viability to the OCR value. Concentration of a drug which inhibits the OCR value reflecting cell viability by 50% was calculated.

SK-MEL-28 cells = experiment: Inhibitory effect of cancer cell proliferation, MTT; format: cell-based; conditions: Homo sapiens
Experimental: The compounds prepared in the above Examples were evaluated for the inhibitory effect of cancer cell proliferation according to the method described in the following Test Example.
SK-MEL-28 cells derived from human melanoma were used, and the concentration (cell growth inhibitory concentration, IC50) at which cell growth was inhibited to 50% was measured using MTT reagent (3-(4,5-dimethylthiazole-2-yl)-2,5-[…] bromide) to confirm the inhibitory effect of cancer cell proliferation of the drugs synthesized in Examples 1 to 84.
First, SK-MEL-28 cells were cultured in 96-well plates at a cell number of about 1,250 in RPMI-1640 medium containing 11.1 mM glucose and 10% calf blood serum or 0.75 mM glucose and 10% calf blood serum, and were cultured for 16 hours. […] After treatment of the compound, MTT was added to the culture medium to confirm living cells and further cultured for 2 hours. The resulting formazane crystal was dissolved using dimethyl sulfoxide, and the absorbance of the solution was measured at 555 nm. After culturing for 72 hours, the number of viable cells in the well plate treated with the compounds synthesized in the Examples relative to the number of cells cultured in the well plate without treatment of the compounds was expressed as cell viability (%) according to each treatment concentration. By using this, a cell viability curve graph was prepared, and the inhibitory effect of cancer cell proliferation was confirmed by calculating the concentration of the compound whose growth was inhibited to 50% (IC50).

[2] = A549 cells, 24 h drug treatment, OCR value reflecting cell viability
[3] = SK-MEL-28, 0.75 mM glucose, 72 hours, MTT, read-out: SK-MEL-28 0.75 mM glucose Cell viability (IC50 μM)
[4] = SK-MEL-28, 11.1 mM glucose, 72 hours, MTT, read-out: SK-MEL-28 11.1 mM glucose Cell viability (IC50 μM)
[5] = SK-MEL-28, 72 h, read-out: SK-MEL-28 0.75 mM glucose Cell viability (IC50 μM)
[6] = SK-MEL-28, 72 h, read-out: SK-MEL-28 11.1 mM glucose Cell viability (IC50 μM)

Row | IC50 [1, 2] [µM] | IC50 (SK-MEL-28 cells; [3]) [µM] | IC50 (SK-MEL-28 cells; [4]) [µM] | Compound | IC50 ([1]; A549, 24 h) [µM] | IC50 (SK-MEL-28 cells; [5]) [µM] | IC50 (SK-MEL-28 cells; [6]) [µM]
1 | 0.9 | 5.4 | 51.1 | Nc1cc[n+](CCCc2ccccc2)cc1 [Example 23, 4-Amino-1-(3-phenylpropyl)pyridinium chloride] | – | – | –
2 | 15.7 | 1.5 | – | CC(C)(C)CNc1cc[n+](Cc2ccccc2)cc1 [Example 61, 1-Benzyl-4-(neopentylamino)pyridinium chloride] | – | – | –
3 | 1.5 | 8 | 28.2 | Nc1cc[n+](CCc2ccccc2)c2ccccc12 [Example 16, 4-Amino-1-phenethylquinolinium iodide] | – | – | –
4 | 0.5 | 5.9 | 8.8 | Nc1cc[n+](CCc2ccc(Cl)c(Cl)c2)cc1 [Example 19, 4-Amino-1-(3,4-dichlorophenethyl)pyridinium chloride] | – | – | –
5 | 0.5 | 5 | 7.5 | Nc1cc[n+](Cc2ccc(Cl)c(Cl)c2)c(F)c1 [Example 35, 4-Amino-1-(3,4-dichlorobenzyl)-2-fluoropyridinium chloride] | – | – | –
6 | 5.2 | 6.1 | 77 | c1ccc(C[n+]2ccc(N3CCC3)cc2)cc1 [Example 66, 4-(Azetidin-1-yl)-1-benzylpyridinium chloride] | – | – | –
7 | 0.6 | 10.7 | 16.9 | Nc1cc[n+](CCc2ccccc2)c(F)c1 [Example 18, 4-amino-2-fluoro-1-phenethylpyridinium chloride] | – | – | –
8 | 7.1 | 20.4 | 208 | c1c[n+](CC2CC2)cc2c1NCCC2 [Example 63, 6-(Cyclopropylmethyl)-1,2,3,4-tetrahydro-1,6-naphthyridin-6-ium chloride] | – | – | –
9 | 2.4 | 15.8 | 106 | Nc1cc[n+](Cc2cccs2)cc1 [Example 77, 4-Amino-1-(thiophen-2-ylmethyl)pyridinium chloride] | – | – | –
10 | 0.4 | 20.7 | 16.8 | Nc1cc[n+](CCc2ccccc2)c(Br)c1 [Example 7, 4-Amino-2-bromo-1-phenethylpyridinium chloride] | – | – | –
11 | 0.4 | 0.7 | 3.8 | Nc1cc[n+](CCC2CCCCC2)c(F)c1 [Example 28, 4-Amino-1-(2-cyclohexylethyl)-2-fluoropyridinium bromide] | – | – | –
12 | 0.8 | 12.8 | 55.5 | Nc1cc[n+](CCc2ccccc2Cl)c(N)c1 [Example 12, 2,4-Diamino-1-(2-chlorophenethyl)pyridinium bromide] | – | – | –
13 | 3.4 | 6.8 | 76.4 | c1cc(C[n+]2ccc(N3CCC3)cc2)cs1 [Example 71, 4-(Azetidin-1-yl)-1-(thiophen-3-ylmethyl)pyridinium bromide] | – | – | –
14 | 5 | 16.6 | 81.4 | COc1cc(N)cc[n+]1Cc1ccccc1 [Example 45, 4-Amino-1-benzyl-2-methoxypyridinium chloride] | – | – | –
15 | 0.8 | 1.7 | 38.5 | c1csc(C[n+]2ccc(N3CCCC3)cc2)c1 [Example 68, 4-(Pyrrolidin-1-yl)-1-(thiophen-2-ylmethyl)pyridinium chloride] | – | – | –
16 | 3.1 | 29.1 | 201 | c1ccc(CC[n+]2ccc(N3CCOCC3)cc2)cc1 [Example 51, 4-Morpholino-1-phenethylpyridinium chloride] | – | – | –
17 | 3.1 | 0.1 | 45.9 | c1ccc(CC[n+]2ccc(N3CCCC3)cc2)cc1 [Example 55, 1-Phenethyl-4-(pyrrolidin-1-yl)pyridinium chloride] | – | – | –
18 | 0.8 | 40 | 367 | c1c[n+](CC2CC2)ccc1N1CCOCC1 [Example 52, 4-Morpholino-1-(cyclopropylmethyl)pyridinium chloride] | – | – | –
19 | – | – | – | Nc1cc[n+](Cc2ccc[se]2)nc1 [Example 75, 4-Amino-1-(selenophen-2-ylmethyl)pyridazin-1-ium chloride] | 18.8 | 57.7 | 239

Row | IC50 [1, 2] [µM] | IC50 (SK-MEL-28 cells; [3]) [µM] | IC50 (SK-MEL-28 cells; [4]) [µM] | Compound | IC50 ([1]; A549, 24 h) [µM] | IC50 (SK-MEL-28 cells; [5]) [µM] | IC50 (SK-MEL-28 cells; [6]) [µM]
20 | 16.5 | 129 | 320 | c1ccc(CC[n+]2ccsc2)cc1 [Example 13, 3-Phenethylthiazol-3-ium iodide] | – | – | –
21 | 2.5 | 3 | 93.9 | c1c[n+](CC2CCC2)ccc1N1CCCC1 [Example 58, 1-(Cyclobutylmethyl)-4-(pyrrolidin-1-yl)pyridinium chloride] | – | – | –
22 | 0.9 | 14.4 | 45.5 | Cc1c[n+](Cc2ccccc2)ccc1N [Example 43, 4-Amino-3-methyl-1-benzylpyridinium chloride] | – | – | –
23 | 0.8 | 1.16 | 30.7 | Cc1ccc(C[n+]2ccc(N3CCCC3)cc2)s1 [Example 79, 1-((5-Methylthiophen-2-yl)methyl)-4-(pyrrolidin-1-yl)pyridinium chloride] | – | – | –
24 | 1.2 | 4.7 | 75.1 | Nc1cc[n+](CCc2ccccc2)c(N)c1 [Example 8, 2,4-Diamino-1-phenethylpyridinium bromide] | – | – | –
25 | – | 154 | 277 | Nc1scc[n+]1CCc1ccccc1 [Example 14, 2-Amino-3-phenethylthiazol-3-ium iodide] | – | – | –
26 | 0.5 | 8.7 | 76.4 | c1c[n+](CCC2CCCCC2)ccc1N1CCOCC1 [Example 53, 1-(2-Cyclohexylethyl)-4-morpholinopyridinium bromide] | – | – | –
27 | 5 | 20.3 | 167 | Nc1cc[n+](CC2CCC2)cc1 [Example 47, 4-Amino-1-(cyclobutylmethyl)pyridinium bromide] | – | – | –
28 | 1.5 | 35 | 199 | CN(C)c1cc[n+](CC2CC2)cc1 [Example 42, 1-(Cyclopropylmethyl)-4-(dimethylamino)pyridinium chloride] | – | – | –
29 | 4.2 | 6.9 | 75.4 | CN(C)c1cc[n+](CCc2ccccc2)cc1 [Example 17, 4-(Dimethylamino)-1-phenethylpyridinium chloride] | – | – | –
30 | 0.8 | 4.4 | 16.8 | Nc1cc[n+](CCCc2ccccc2)c(F)c1 [Example 24, 4-Amino-2-fluoro-1-(3-phenylpropyl)pyridinium chloride] | – | – | –
31 | 2.7 | 45.3 | 76.5 | Nc1cc[n+](CC2CC2)c(F)c1 [Example 39, 4-Amino-1-(cyclopropylmethyl)-2-fluoropyridinium chloride] | – | – | –
32 | – | 28.6 | 215 | FC1(F)CCN(c2cc[n+](Cc3ccccc3)cc2)CC1 [Example 65, 1-benzyl-4-(4,4-difluoropiperidin-1-yl)pyridinium chloride] | – | – | –
33 | – | 169 | 358 | Nc1cc[n+](CC2CC2)cn1 [Example 73, 4-Amino-1-(cyclopropylmethyl)pyrimidin-1-ium chloride] | – | – | –
34 | – | 14.6 | 132 | CC(C)(C)Nc1cc[n+](Cc2ccccc2)cc1 [Example 69, 1-benzyl-4-(tert-butylamino)pyridinium chloride] | – | – | –
35 | – | – | – | Nc1cc[n+](Cc2ccc[se]2)cn1 [Example 74, 4-Amino-1-(selenophen-2-ylmethyl)pyrimidin-1-ium chloride] | – | 74.4 | 243
36 | – | 131 | 545 | c1ccc(C[n+]2ccc(NC3COC3)cc2)cc1 [Example 67, 1-Benzyl-4-(oxetan-3-ylamino)pyridinium chloride] | – | – | –
37 | 4.6 | – | – | COc1ccc2cc3[n+](cc2c1OC)CCc1cc2c(cc1-3)OCO2 [Berberine, reference compound] | – | – | –
